Data as given in patent US20090304692A1, “TRIAZINE COMPOUNDS AS PI3 KINASE AND MTOR INHIBITORS” (Wyeth, priority 2008, published 2009).
pIC50: −log10 of the molar value. Read-outs that look alike come from different tables or passages of the source.

Columns and labels:
PI3K-γ = PI3K-γ (Homo sapiens, UniProt P48736); test: PI3K-gamma fluorescence polarization assay
PI3K-α = PI3K-α (Homo sapiens, UniProt P42336); test: PI3K-alpha fluorescence polarization assay
Human mTOR (FLAG-TOR) = Human mTOR (FLAG-TOR) (Homo sapiens, UniProt P42345); test: mTOR kinase assay (DELFIA format, purified enzyme); type: biochemical; details: read-out: IC50 mTOR
[1] = system: human prostate LNCap tumor cell line; test: In vitro cell culture growth assay (MTS), LNCap; details: read-out: IC50 LNCap
[2] = MTS cell growth assay, three days after drug treatment

Sequence of PI3K-α (P42336 whole entry, species assumed): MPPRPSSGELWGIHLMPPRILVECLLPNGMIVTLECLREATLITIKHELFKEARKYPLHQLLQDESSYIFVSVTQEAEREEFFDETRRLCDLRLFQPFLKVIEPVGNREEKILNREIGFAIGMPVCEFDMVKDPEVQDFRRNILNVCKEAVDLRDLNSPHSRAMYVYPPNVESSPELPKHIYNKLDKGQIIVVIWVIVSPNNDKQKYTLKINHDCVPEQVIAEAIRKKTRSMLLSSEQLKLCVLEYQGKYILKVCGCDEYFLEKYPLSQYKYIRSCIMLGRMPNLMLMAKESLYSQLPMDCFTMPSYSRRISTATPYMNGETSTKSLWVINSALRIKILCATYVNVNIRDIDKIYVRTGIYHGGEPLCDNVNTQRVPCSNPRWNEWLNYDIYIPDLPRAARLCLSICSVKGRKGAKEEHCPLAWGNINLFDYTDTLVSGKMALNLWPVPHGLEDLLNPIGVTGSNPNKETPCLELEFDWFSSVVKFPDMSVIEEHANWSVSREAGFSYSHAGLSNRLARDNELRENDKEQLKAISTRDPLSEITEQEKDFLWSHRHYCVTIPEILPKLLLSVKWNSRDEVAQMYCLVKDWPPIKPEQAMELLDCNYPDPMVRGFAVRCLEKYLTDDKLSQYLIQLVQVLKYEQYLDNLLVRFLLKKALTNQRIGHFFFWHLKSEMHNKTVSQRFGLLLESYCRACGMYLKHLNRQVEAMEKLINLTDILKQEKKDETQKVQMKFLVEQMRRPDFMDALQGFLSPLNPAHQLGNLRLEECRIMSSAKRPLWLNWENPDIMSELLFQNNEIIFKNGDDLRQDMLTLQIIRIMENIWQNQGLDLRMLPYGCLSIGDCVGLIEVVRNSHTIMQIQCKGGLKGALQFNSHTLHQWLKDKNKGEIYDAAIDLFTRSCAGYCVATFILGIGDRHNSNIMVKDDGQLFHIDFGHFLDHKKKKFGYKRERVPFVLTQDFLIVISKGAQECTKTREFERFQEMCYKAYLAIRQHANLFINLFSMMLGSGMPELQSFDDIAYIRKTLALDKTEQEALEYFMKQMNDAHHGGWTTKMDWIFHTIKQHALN
Sequence of PI3K-α (P27986 whole entry partner, species assumed): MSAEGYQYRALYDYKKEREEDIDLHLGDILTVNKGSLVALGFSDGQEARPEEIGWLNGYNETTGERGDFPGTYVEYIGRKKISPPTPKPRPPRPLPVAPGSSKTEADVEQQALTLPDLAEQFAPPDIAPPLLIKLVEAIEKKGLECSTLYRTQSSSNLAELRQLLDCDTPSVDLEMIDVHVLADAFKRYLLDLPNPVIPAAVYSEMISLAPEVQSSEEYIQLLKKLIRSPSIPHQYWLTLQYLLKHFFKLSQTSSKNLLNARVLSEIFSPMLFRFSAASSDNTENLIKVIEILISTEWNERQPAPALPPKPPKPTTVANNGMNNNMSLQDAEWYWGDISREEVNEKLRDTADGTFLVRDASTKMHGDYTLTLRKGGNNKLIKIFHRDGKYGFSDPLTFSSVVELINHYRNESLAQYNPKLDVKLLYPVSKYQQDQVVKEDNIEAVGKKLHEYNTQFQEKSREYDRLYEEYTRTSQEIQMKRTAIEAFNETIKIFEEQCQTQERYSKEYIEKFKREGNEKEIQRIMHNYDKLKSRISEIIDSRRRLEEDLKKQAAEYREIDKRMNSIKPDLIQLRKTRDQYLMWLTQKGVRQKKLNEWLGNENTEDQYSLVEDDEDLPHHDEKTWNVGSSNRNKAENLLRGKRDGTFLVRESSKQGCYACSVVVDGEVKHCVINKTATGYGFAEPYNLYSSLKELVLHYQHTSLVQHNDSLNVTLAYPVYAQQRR
Sequence of PI3K-γ (P48736 whole entry, species assumed): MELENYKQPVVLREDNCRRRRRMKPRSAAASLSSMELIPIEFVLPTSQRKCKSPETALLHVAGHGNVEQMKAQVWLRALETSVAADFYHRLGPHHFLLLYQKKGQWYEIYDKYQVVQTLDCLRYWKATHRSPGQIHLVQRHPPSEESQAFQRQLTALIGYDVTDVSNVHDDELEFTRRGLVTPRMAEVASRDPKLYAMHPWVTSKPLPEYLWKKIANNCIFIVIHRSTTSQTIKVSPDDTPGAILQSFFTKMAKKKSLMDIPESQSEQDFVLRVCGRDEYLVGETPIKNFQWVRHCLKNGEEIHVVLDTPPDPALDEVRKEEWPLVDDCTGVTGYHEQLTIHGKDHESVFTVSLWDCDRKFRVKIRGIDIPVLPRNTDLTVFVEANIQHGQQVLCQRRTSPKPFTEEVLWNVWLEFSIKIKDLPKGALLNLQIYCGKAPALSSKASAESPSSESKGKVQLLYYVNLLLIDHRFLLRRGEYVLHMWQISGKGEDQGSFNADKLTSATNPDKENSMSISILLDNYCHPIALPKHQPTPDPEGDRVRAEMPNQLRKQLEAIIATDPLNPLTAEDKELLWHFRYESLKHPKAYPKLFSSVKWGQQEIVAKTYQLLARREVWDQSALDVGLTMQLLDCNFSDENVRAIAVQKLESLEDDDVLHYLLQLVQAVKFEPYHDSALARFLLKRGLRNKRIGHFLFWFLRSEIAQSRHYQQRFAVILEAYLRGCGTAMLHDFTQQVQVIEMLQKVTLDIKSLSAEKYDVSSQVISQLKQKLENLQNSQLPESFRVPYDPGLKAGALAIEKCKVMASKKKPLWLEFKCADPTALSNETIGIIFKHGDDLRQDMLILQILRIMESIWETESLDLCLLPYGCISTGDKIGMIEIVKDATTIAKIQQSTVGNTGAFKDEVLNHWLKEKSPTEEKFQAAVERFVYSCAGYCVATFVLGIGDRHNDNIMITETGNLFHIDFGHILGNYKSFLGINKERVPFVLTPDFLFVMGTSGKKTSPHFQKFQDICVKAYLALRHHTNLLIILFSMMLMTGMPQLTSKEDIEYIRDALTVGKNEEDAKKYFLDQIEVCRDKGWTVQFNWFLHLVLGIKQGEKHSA
Sequence of Human mTOR (FLAG-TOR) (P42345 1360-2549 limits assumed): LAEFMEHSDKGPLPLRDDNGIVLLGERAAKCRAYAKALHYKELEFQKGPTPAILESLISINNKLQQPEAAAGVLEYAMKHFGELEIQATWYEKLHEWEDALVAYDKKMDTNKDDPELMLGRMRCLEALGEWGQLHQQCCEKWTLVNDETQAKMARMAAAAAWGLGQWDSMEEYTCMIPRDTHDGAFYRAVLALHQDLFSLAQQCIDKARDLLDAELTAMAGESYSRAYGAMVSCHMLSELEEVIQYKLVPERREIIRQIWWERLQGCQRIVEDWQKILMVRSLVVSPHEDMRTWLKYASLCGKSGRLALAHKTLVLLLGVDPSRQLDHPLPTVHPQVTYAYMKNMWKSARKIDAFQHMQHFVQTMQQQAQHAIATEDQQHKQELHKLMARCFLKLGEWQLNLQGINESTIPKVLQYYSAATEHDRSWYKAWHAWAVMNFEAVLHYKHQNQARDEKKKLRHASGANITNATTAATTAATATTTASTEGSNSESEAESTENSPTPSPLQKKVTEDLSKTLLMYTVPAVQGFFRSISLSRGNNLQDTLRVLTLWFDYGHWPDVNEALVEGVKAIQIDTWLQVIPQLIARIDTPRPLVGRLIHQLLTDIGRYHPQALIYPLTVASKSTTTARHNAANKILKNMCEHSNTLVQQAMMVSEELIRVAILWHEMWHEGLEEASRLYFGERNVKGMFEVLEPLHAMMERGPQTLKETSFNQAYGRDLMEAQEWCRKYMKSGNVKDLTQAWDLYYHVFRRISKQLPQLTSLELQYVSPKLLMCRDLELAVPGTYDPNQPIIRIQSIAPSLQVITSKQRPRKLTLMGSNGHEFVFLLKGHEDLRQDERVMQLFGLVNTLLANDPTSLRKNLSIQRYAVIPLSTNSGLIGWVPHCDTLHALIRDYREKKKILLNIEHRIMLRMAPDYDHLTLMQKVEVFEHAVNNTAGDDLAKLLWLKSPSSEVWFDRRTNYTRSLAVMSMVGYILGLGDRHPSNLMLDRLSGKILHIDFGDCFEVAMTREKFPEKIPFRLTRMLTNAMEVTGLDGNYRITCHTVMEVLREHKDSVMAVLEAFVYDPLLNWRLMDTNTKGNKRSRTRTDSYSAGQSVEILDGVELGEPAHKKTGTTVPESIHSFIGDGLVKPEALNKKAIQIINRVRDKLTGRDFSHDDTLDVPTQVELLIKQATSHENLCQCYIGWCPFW

| Compound | pIC50 (PI3K-γ; read-out: IC50 PI3Kγ) | pIC50 (PI3K-α; read-out: IC50 PI3Kα) | pIC50 (Human mTOR (FLAG-TOR)) | pIC50 ([1]; Homo sapiens, LNCaP, 72 h) | pIC50 (PI3K-γ) | pIC50 (PI3K-α) | pIC50 [1, 2] |
| --- | --- | --- | --- | --- | --- | --- | --- |
| CC(C)Nc1nc(-c2ccc(NC(=O)Nc3ccc(N4CCC(N(C)C)CC4)cc3)cc2)nc(N2C3CCC2COC3)n1 [Example 388, 1-(4-(4-(3-oxa-8-azabicyclo[3.2.1]octan-8-yl)-6-(isopropylamino)-1,3,5-triazin-2-yl)phenyl)-3-(4-(4-(dimethylamino)piperidin-1-yl)phenyl)urea] | 5.37 | 5.46 | 8.32 | 6.96 |  |  |  |
| O=C(Nc1ccc(-c2nc(Nc3ccccc3)nc(N3CC4CCC(C3)O4)n2)cc1)Nc1cccnc1 [Example 150, 1-{4-[4-anilino-6-(8-oxa-3-azabicyclo[3.2.1]oct-3-yl)-1,3,5-triazin-2-yl]phenyl}-3-pyridin-3-ylurea] |  |  | 8.30 | 6.54 | < 5.00 | 6.08 |  |
| CN1CCN(c2ccc(NC(=O)Nc3ccc(-c4nc(-c5ccc(NC(=O)Nc6ccc(N7CCN(C)CC7)cc6)cc5)nc(N5CC6CCC(C5)O6)n4)cc3)cc2)CC1 [Example 147, N′,N′″-{[6-(8-oxa-3-azabicyclo[3.2.1]oct-3-yl)-1,3,5-triazine-2,4-diyl]di-4,1-phenylene}bis{1-[4-(4-methylpiperazin-1-yl)phenyl]urea}] | 5.17 | 5.71 | 8.22 | 6.00 |  |  |  |
| CCNC1CCN(c2nc(-c3ccc(NC(=O)Nc4ccncc4)cc3)nc(N3CC4CCC(C3)O4)n2)CC1 [Example 119, 1-(4-{4-[4-(ethylamino)piperidin-1-yl]-6-(8-oxa-3-azabicyclo[3.2.1]oct-3-yl)-1,3,5-triazin-2-yl}phenyl)-3-pyridin-4-ylurea] | 5.12 | 5.91 | 6.85 | 5.55 |  |  |  |
| NC(=O)CNC1CCN(c2nc(-c3ccc(NC(=O)Nc4ccncc4)cc3)nc(N3CC4CCC(C3)O4)n2)CC1 [Example 126, 2-(1-(4-(8-oxa-3-azabicyclo[3.2.1]octan-3-yl)-6-(4-(3-pyridin-4-ylureido)phenyl)-1,3,5-triazin-2-yl)piperidin-4-ylamino)acetamide] | 5.26 | 6.29 | 7.71 | 5.89 |  |  |  |
| 1-(4-(4-(3-oxa-8-azabicyclo[3.2.1]octan-8-yl)-6-(piperidin-4-ylamino)-1,3,5-triazin-2-yl)phenyl)-3-ethylurea [Example 362] | < 5.00 | 5.51 | 9.13 |  |  |  | 9.00 |
| O=C(Nc1ccc(CN2CCNCC2)cc1)Nc1ccc(-c2nc(N3C4CCC3COC4)nc(N3C4CCC3COC4)n2)cc1 [Example 366, 1-(4-(4,6-di(3-oxa-8-azabicyclo[3.2.1]octan-8-yl)-1,3,5-triazin-2-yl)phenyl)-3-(4-(piperazin-1-ylmethyl)phenyl)urea] | 5.52 | 6.23 | 8.96 | 8.55 |  |  |  |
| 1-(4-(4-(3-oxa-8-azabicyclo[3.2.1]octan-8-yl)-6-(piperidin-4-ylamino)-1,3,5-triazin-2-yl)phenyl)-3-ethylurea [Example 361] | < 5.00 | 5.22 | 8.89 |  |  |  | 8.66 |
| COCC(COC)Oc1nc(-c2ccc(NC(=O)OCCO)cc2)nc(N2CC3CCC(C2)O3)n1 [Example 176, 2-hydroxyethyl (4-{4-[2-methoxy-1-(methoxymethyl)ethoxy]-6-(8-oxa-3-azabicyclo[3.2.1]oct-3-yl)-1,3,5-triazin-2-yl}phenyl)carbamate] | 5.43 | 5.95 | 7.66 | 6.00 |  |  |  |
| CNC1CCN(c2nc(-c3ccc(NC(=O)Nc4ccncc4)cc3)nc(N3CC4CCC(C3)O4)n2)CC1 [Example 118, 1-(4-{4-[4-(methylamino)piperidin-1-yl]-6-(8-oxa-3-azabicyclo[3.2.1]oct-3-yl)-1,3,5-triazin-2-yl}phenyl)-3-pyridin-4-ylurea] | 6.53 | 6.42 | 6.71 | 5.52 |  |  |  |
| CC(C)Nc1nc(-c2ccc(NC(=O)Nc3ccncc3)cc2)nc(N2C3CCC2COC3)n1 [Example 377, 1-(4-(4-(3-oxa-8-azabicyclo[3.2.1]octan-8-yl)-6-(isopropylamino)-1,3,5-triazin-2-yl)phenyl)-3-(pyridin-4-yl)urea] | 5.33 | 5.58 | 8.41 | 7.05 |  |  |  |
| CCNC(=O)Nc1ccc(-c2nc(N3CC4CCC(C3)O4)nc(N3CC4CCC(C3)O4)n2)cc1 [Example 29, 1-[4-(4,6-di-8-oxa-3-azabicyclo[3.2.1]oct-3-yl-1,3,5-triazin-2-yl)phenyl]-3-ethylurea] |  | 5.57 | 8.55 | 6.74 | < 5.00 |  |  |
| CC(C)Nc1nc(-c2ccc(NC(=O)Nc3ccc(N4CCN(C)CC4)cc3)cc2)nc(N2CC3CCC(C2)O3)n1 [Example 217, 1-(4-{4-[(1-methylethyl)amino]-6-(8-oxa-3-azabicyclo[3.2.1]oct-3-yl)-1,3,5-triazin-2-yl}phenyl)-3-[4-(4-methylpiperazin-1-yl)phenyl]urea] | 5.49 | 6.60 | 8.49 | 7.89 |  |  |  |
| NCCCCOc1nc(-c2ccc(NC(=O)Nc3cccnc3)cc2)nc(N2CC3CCC(C2)O3)n1 [Example 181, 1-{4-[4-(4-aminobutoxy)-6-(8-oxa-3-azabicyclo[3.2.1]oct-3-yl)-1,3,5-triazin-2-yl]phenyl}-3-pyridin-3-ylurea] | 5.17 | 6.37 | 7.96 | 5.47 |  |  |  |

Further compounds by rising pIC50 (Human mTOR (FLAG-TOR)), results first:

| pIC50 (PI3K-γ; read-out: IC50 PI3Kγ) | pIC50 (PI3K-α; read-out: IC50 PI3Kα) | pIC50 (Human mTOR (FLAG-TOR)) | pIC50 ([1]; Homo sapiens, LNCaP, 72 h) | pIC50 (PI3K-γ) | pIC50 (PI3K-α) | Compound | pIC50 [1, 2] |
| --- | --- | --- | --- | --- | --- | --- | --- |
|  | 6.28 | 8.64 | 7.74 | < 5.00 |  | CC(C)N1CCN(c2ccc(NC(=O)Nc3ccc(-c4nc(N5CCOC[C@H]5C)nc(N5CCOC[C@H]5C)n4)cc3)cc2)CC1 [Example 448, 1-(4-(4,6-bis((R)-3-methylmorpholino)-1,3,5-triazin-2-yl)phenyl)-3-(4-(4-isopropylpiperazin-1-yl)phenyl)urea] |  |
| 5.55 | 6.41 | 8.72 | 8.10 |  |  | CCN1CCN(c2ccc(NC(=O)Nc3ccc(-c4nc(N5CCOC[C@H]5C)nc(N5CCOC[C@H]5C)n4)cc3)cc2)CC1 [Example 447, 1-(4-(4,6-bis((R)-3-methylmorpholino)-1,3,5-triazin-2-yl)phenyl)-3-(4-(4-ethylpiperazin-1-yl)phenyl)urea] |  |
| 6.00 | 6.32 | 8.72 | 8.05 |  |  | CC(C)N1CCN(c2ccc(NC(=O)Nc3ccc(-c4nc(C5CCOCC5)nc(N5CCOC[C@H]5C)n4)cc3)cc2)CC1 [Example 429, (R)-1-(4-(4-isopropylpiperazin-1-yl)phenyl)-3-(4-(4-(3-methylmorpholino)-6-(tetrahydro-2H-pyran-4-yl)-1,3,5-triazin-2-yl)phenyl)urea] |  |
| 6.15 | 7.07 | 8.85 | > 9.10 |  |  | CC(C)N1CCN(C(=O)c2ccc(NC(=O)Nc3ccc(-c4nc(N5CCOC[C@H]5C)nc(N5CCOC[C@H]5C)n4)cc3)cc2)CC1 [Example 451, 1-(4-(4,6-bis((R)-3-methylmorpholino)-1,3,5-triazin-2-yl)phenyl)-3-(4-(4-isopropylpiperazine-1-carbonyl)phenyl)urea] |  |
| 5.85 | 6.24 | 8.89 | 8.15 |  |  | C[C@@H]1COCCN1c1nc(-c2ccc(NC(=O)Nc3ccc(OCCN(C)C)cc3)cc2)nc(C2CCOCC2)n1 [Example 427, (R)-1-(4-(2-(dimethylamino)ethoxy)phenyl)-3-(4-(4-(3-methylmorpholino)-6-(tetrahydro-2H-pyran-4-yl)-1,3,5-triazin-2-yl)phenyl)urea] |  |
| 5.77 | 6.48 | 8.96 | 8.52 |  |  | C[C@@H]1COCCN1c1nc(-c2ccc(NC(=O)Nc3ccc(N4CCN(C)CC4)cc3)cc2)nc(N2CCOC[C@H]2C)n1 [Example 399, 1-(4-(4,6-bis((R)-3-methylmorpholino)-1,3,5-triazin-2-yl)phenyl)-3-(4-(4-methylpiperazin-1-yl)phenyl)urea] |  |
| 6.47 | 7.37 | 9.00 | > 9.10 |  |  | C[C@@H]1COCCN1c1nc(-c2ccc(NC(=O)Nc3ccc(C(=O)N4CCN(C)CC4)cc3)cc2)nc(C2CCOCC2)n1 [Example 431, (R)-1-(4-(4-(3-methylmorpholino)-6-(tetrahydro-2H-pyran-4-yl)-1,3,5-triazin-2-yl)phenyl)-3-(4-(4-methylpiperazine-1-carbonyl)phenyl)urea] |  |
| 6.20 | 6.91 | 9.25 | 9.10 |  |  | CN1CCN(c2ccc(NC(=O)Nc3ccc(-c4nc(N5CC6CCC(C5)O6)nc(N5[C@H](CO)CC[C@@H]5CO)n4)cc3)cc2)CC1 [Example 668, 1-(4-{4-[(2R,5S)-2,5-bis(hydroxymethyl)pyrrolidin-1-yl]-6-(8-oxa-3-azabicyclo[3.2.1]oct-3-yl)-1,3,5-triazin-2-yl}phenyl)-3-[4-(4-methylpiperazin-1-yl)phenyl]urea] |  |
| 6.30 | 7.39 | 9.26 | > 9.10 |  |  | C[C@@H]1COCCN1c1nc(-c2ccc(NC(=O)Nc3ccc(C(=O)N(C)C)cc3)cc2)nc(N2CCOC[C@H]2C)n1 [Example 452, 4-(3-(4-(4,6-bis((R)-3-methylmorpholino)-1,3,5-triazin-2-yl)phenyl)ureido)-N,N-dimethylbenzamide] |  |
| 6.18 | 7.94 | 9.35 | > 9.10 |  |  | CN1CCN(CC(=O)Nc2ccc(NC(=O)Nc3ccc(-c4nc(N5CC6CCC(C5)O6)nc(N5CC6CCC(C5)O6)n4)cc3)cc2)CC1 [Example 509, N-[4-({[4-(4,6-di-8-oxa-3-azabicyclo[3.2.1]oct-3-yl-1,3,5-triazin-2-yl)phenyl]carbamoyl}amino)phenyl]-2-(4-methylpiperazin-1-yl)acetamide] |  |
